Read-outs that look alike come from different tables or passages of the source.
What was measured:
[1] = target: T1, 17β-hydroxysteroid dehydrogenase type 1 (17β-HSD1) (Homo sapiens, UniProt P14061); conditions: earlier paper of the authors; read-out: 17β-HSD1 IC50 ± SD; cited from earlier work
T1 sequence (P14061 1-328): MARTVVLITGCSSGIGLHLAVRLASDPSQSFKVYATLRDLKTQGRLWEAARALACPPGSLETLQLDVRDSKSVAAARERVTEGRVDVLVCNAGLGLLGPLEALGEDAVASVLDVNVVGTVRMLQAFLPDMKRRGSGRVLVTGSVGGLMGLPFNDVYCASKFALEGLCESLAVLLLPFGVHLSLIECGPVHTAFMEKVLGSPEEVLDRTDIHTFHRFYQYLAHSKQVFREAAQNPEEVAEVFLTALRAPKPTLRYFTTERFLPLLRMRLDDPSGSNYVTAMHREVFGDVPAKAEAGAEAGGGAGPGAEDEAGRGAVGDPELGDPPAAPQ

[2] = target: T2, human aromatase (Homo sapiens, UniProt P11511); assay: Aromatase inhibition, in vitro radiosubstrate incubation (testosterone to E2 conversion), human placental microsomes; assay type: biochemical; conditions: for remaining activity at 10 µM: 10 µM test compound, non-inhibited control 100%, mean ± SD, n = 3, read-out: Arom Rel.conv. ± SD
T2 construct: from tissue; host or cells: human term placenta, microsomal fraction
T2 sequence (P11511 1-503): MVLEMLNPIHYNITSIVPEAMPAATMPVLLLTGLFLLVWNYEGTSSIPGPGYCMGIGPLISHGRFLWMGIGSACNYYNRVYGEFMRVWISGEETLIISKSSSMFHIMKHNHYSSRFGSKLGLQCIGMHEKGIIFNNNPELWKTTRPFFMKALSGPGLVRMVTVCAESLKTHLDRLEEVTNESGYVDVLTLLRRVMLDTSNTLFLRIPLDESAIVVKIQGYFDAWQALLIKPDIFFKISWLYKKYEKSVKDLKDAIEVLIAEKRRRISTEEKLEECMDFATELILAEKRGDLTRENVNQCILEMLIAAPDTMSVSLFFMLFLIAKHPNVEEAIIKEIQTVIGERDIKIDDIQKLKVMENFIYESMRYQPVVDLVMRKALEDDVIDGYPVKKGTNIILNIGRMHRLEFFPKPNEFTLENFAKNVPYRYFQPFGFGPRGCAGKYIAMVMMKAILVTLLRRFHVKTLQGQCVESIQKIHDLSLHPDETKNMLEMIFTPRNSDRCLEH
Description: (§1) Enzyme inhibition studies were performed by in vitro radiosubstrate incubations using human term placenta cytosol and microsomas as enzyme sources. […] Relative conversions compared to non-inhibited controls (100%) were measured in the presence of 10 µM concentration of the test compound. […] Mechanistic and kinetic investigations were performed and inhibitory constants (Ki) were determined for selected compounds.
(§2) Enzymatic incubations were carried out in the HEPES buffer medium at a final volume of 200
(§3) µl. The substrate was added to the incubate in 20 µl of a 25 v/v% propylene glycol in HEPES buffer solution, whereas test compounds were applied in 10 µl of dimethyl sulfoxide solution.
Incubations were performed at 37 °C and terminated by cooling and the addition of organic solvents of the subsequent extraction procedure. Control samples with no inhibitor and blank samples were incubated simultaneously. The radioactivity of the products formed was measured by means of liquid scintillation counting (LSC) and taken as indicator of the […]
In the aromatase assays the microsoma suspension was incubated with appropriate concentration of unlabelled testosterone (2) substrate spiked with [1,2,6,7-3H]testosterone tracer, and in the presence of 0.1 mM NADPH cofactor excess. (In this case, solution of the substrate was prepared with acetonitrile instead of propylene glycol.) Incubation time was 40 min. The incubation mixture was extracted with toluene, then the toluene phase was drained and washed with HEPES buffer. Aromatase products containing phenolic hydroxy group were extracted with 1.2 M sodium hydroxide solution from the toluene extract and the alkaline phase was measured in the LSC. […]
was extracted with toluene. […]
(§4) In the general procedure, incubations were performed as described. Concentrations of the substrates were 1.0 µM, and the test compounds were applied at 10 µM final concentration in the incubate. Relative conversions compared to non-inhibited controls (100%) were determined. The assays were performed in triplicate, and the mean value and the standard deviation (SD) were calculated. […]
(§5) these cases, conversions were measured at 10–15 different concentrations in the appropriate interval between 0.001–50 µM. IC50 results were calculated by using unweighted iterative least squares logistic curve fitting by means of the “absolute IC50 calculation“ function of the GraphPad Prism 4.0 software (GraphPad Software, Inc., San Diego, CA, USA).
Kinetic analyses were performed via measurement of the enzymatic transformation using different fixed substrate concentrations and varied inhibitor concentrations. The Dixon’s linear transformation (1/velocity vs. inhibitor concentration) was applied for evaluation and the inhibition constant (Ki) was determined from abscissa of intersection of the lines of different substrate concentrations. Mechanism of binding was identified according to the […]

[3] = target: T1, 17β-hydroxysteroid dehydrogenase type 1 (17β-HSD1); assay: 17β-HSD1 inhibition, in vitro radiosubstrate incubation (E1 to E2), human placental cytosol; Dixon kinetic analysis; assay type: biochemical; conditions: for 17β-HSD1 inhibition mechanism: Dixon's plot; for 17β-HSD1 inhibition mechanism / Ki: cofactor excess; for IC50: E1 substrate 1.0 µM, NADPH excess, read-out: 17β-HSD1 IC50 ± SD; for Ki: from Dixon plot
Description: as §1
Inhibitors that bind to the steroid site of 17β-HSD1 can bind to both the free enzyme and the binary enzyme–cofactor complex by random kinetic mechanism.
as §2, §3
(§6) Incubations were performed at 37 °C and terminated by cooling and the addition of organic solvents of the subsequent extraction procedure. Control samples with no inhibitor and blank samples were incubated simultaneously. […]
The incubation time was 2.5 min. The product 17β-estradiol (E2, 5) was extracted with ethyl acetate and isolated by a TLC method (details are published in our earlier reference).
as §4, §5
(§7) Kinetic analyses were performed via measurement of the enzymatic transformation using different fixed substrate concentrations and varied inhibitor concentrations. The Dixon’s linear transformation (1/velocity vs. inhibitor concentration) was applied for evaluation and the inhibition constant (Ki) was determined from abscissa of intersection of the lines of different substrate concentrations. Mechanism of binding was identified according to the Dixon’s graphs and the secondary plot of slopes of the Dixon’s lines vs. 1/substrate […]
(§8) The inhibitor compounds were preincubated with the appropriate placenta fraction in a volume of 4.0 µl at 37 °C for various time periods (2.5-40 min). Following this procedure, samples were diluted with the incubation medium to 50-fold. Enzyme activity measurements

[4] = target: T3, 17β-HSD1 (Homo sapiens, UniProt P14061); assay: 17β-HSD1 inhibition reversibility test (preincubation with placental cytosol, 50-fold dilution); assay type: biochemical; conditions: preincubation 10 μM, 2.5 and 20 min
T3 construct: from tissue; host or cells: human term placenta, cytosolic fraction
T3 sequence (P14061 1-328): T1 sequence (P14061 1-328)
Description: as §5, §7
as §8, with “measurements were started immediately for the 17β-HSD1 and after 20 min secondary incubation time to allow dissociation in the case of STS. […]” for “measurements”

[5] = target: T4, steroid sulfatase (STS) (Homo sapiens, UniProt P08842); assay: STS inhibition, in vitro radiosubstrate incubation (release of E1 from E1S), human placental microsomes; Dixon kinetic analysis; assay type: biochemical; conditions: for IC50: E1S substrate 1.0 µM, read-out: STS IC50 ± SD; for STS inhibition mechanism: Dixon's plots; for Ki: from Dixon plot
T4 construct: from tissue; host or cells: human term placenta, microsomal fraction
T4 sequence (P08842 22-583): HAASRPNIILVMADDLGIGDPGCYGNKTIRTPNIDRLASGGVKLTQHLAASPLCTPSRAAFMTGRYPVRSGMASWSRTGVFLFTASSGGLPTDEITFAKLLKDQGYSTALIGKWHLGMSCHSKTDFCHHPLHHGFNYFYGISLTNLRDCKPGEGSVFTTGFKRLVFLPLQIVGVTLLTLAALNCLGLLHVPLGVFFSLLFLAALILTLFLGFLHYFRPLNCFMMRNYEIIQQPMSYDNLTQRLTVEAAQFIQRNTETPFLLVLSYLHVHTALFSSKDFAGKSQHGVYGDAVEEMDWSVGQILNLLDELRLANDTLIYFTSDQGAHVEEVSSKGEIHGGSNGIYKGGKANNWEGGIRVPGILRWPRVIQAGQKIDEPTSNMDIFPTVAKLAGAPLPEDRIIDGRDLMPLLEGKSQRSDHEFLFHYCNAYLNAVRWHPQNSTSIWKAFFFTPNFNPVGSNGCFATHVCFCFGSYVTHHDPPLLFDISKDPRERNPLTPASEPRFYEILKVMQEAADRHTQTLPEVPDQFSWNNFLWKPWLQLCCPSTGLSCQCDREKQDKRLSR
Description: as §1
Kinetic analyses of selected compounds 7a and 16c were performed by measurement of enzyme activities using different fixed substrate concentrations and varied inhibitor concentrations.
as §2, §3, §6
The incubation time was 2.5 min. […]
as §4, §5, §7
The inhibitor compounds were preincubated with the appropriate placenta fraction in a volume of 4.0 µl at 37 °C for various time periods (2.5-40 min). Following this procedure, […]

[6] = target: aromatase enzyme; parameters: method as in PMID 16039845; conditions: cited from earlier work
[7] = target: T4, steroid sulfatase (STS); assay: STS inhibition reversibility test (preincubation with placental microsomes, 50-fold dilution); assay type: biochemical; conditions: preincubation 7a 1.5 μM, 16c 10 μM; for STS binding reversibility: 50-fold dilution, 20 min secondary incubation

Row | SMILES | IC50 [1] | remaining activity at 10 µM [2] | 17β-HSD1 inhibition mechanism [3] | IC50 [3] | Ki [3] | 17β-HSD1 binding reversibility [4] | IC50 [5] | IC50 [2] | IC50 [6] | time in which irreversible binding to STS is nearly completed [7] | STS binding reversibility [7] | STS inhibition mechanism [5] | Ki [5] | STS affinity higher compared to the E1S substrate ([5]; from IC50 values) | STS affinity increased compared to E1 ([5]; from IC50 values) | Ki [6] | enhancement in affinity to aromatase compared to E1 [6] | 17β-HSD1 Rel.conv. ± SD ([3]; 10 µM test compound, non-inhibited control 100%, mean ± SD, n = 3)
1 | C[C@@]12CC[C@@H]3c4ccc(O)c(I)c4CC[C@H]3[C@@H]1CCC2=O [11a] | 1000 ± 300 nM | 90 ± 7% | competitive | 380 nM | 2200 nM | reversible | 6000 ± 1600 nM | – | – | – | – | – | – | – | – | – | – | –
2 | C[C@]12CC[C@@H]3c4cc(Br)c(O)cc4CC[C@H]3[C@@H]1CCC2=O [6b, 2-Bromoestrone] | – | – | – | 95 ± 31 nM | – | – | 2000 ± 400 nM | 8700 ± 2800 nM | 2400 nM | – | – | – | – | – | – | – | – | –
3 | C[C@]12CC[C@@H]3c4ccc(O)c(I)c4CC[C@H]3[C@@H]1CCC2=O [7a, 4-iodoestrone] | – | 88 ± 2% | – | 360 ± 250 nM | – | – | 230 ± 90 nM | – | – | ≤ 2.5 min | irreversible | competitive | 360 nM | 22 fold | 100 fold | – | – | –
4 | C[C@@]12CC[C@@H]3c4cc(I)c(O)c(I)c4CC[C@H]3[C@@H]1CCC2=O [12a] | 380 ± 80 nM | 91 ± 1% | competitive | 1000 nM | 940 nM | reversible | 2400 ± 500 nM | – | – | – | – | – | – | – | – | – | – | –
5 | C[C@]12CC[C@@H]3c4cc(Cl)c(O)cc4CC[C@H]3[C@@H]1CCC2=O [6c, 2-Chloroestrone] | – | – | – | 180 ± 20 nM | – | – | 2400 ± 400 nM | 6000 ± 1200 nM | – | – | – | – | – | – | – | 130 nM | ~20 fold | –
6 | C[C@]12CCC[C@H]1[C@@H]1CCc3c(cc(Cl)c(O)c3Cl)[C@H]1CC2 [16c, 2,4-bis-chloro-17-deoxy-13α-estrone] | – | 82 ± 12% | – | – | – | – | 1300 ± 400 nM | – | – | ≤ 2.5 min | irreversible | competitive | 1900 nM | – | – | – | – | 53 ± 2%
